Where two headings read alike, the source gives them in different places.

The values that follow come from patent EP1202975B1, “SUBSTITUTED POLYCYCLIC ARYL AND HETEROARYL PYRAZINONES USEFUL FOR SELECTIVE INHIBITION OF THE COAGULATION CASCADE” (Pharmacia Corporation, priority 1999, dated 2000).

The target of one experiment is T1, TF-VIIa (Homo sapiens, UniProt P08709).
T1 construct: 2nM recombinant human factor VIIa; purchased American Diagnostica, Greenwich CT; host or cells: soluble TF made in house in E. coli
T1 sequence (P08709 213-466 limits assumed): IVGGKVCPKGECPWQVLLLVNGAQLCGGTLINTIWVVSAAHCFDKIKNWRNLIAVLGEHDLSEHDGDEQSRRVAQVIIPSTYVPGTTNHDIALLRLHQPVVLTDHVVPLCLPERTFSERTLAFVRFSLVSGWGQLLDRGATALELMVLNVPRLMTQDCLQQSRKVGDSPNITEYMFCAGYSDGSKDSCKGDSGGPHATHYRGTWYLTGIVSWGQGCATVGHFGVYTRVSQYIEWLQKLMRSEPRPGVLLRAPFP
T1 sequence (P08709 61-212 limits assumed): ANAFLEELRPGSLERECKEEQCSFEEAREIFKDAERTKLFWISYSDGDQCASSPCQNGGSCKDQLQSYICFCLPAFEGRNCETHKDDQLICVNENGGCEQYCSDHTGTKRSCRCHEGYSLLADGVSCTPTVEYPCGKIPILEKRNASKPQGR
T1 sequence (P13726 33-251 partner limits assumed): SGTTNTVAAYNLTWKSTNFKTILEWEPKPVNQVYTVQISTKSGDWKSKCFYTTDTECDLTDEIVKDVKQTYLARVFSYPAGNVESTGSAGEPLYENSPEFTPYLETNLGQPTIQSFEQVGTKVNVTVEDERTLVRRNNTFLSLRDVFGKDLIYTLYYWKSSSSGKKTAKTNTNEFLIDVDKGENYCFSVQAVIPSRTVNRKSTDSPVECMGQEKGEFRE
The experiment in a line: TF-VIIa Assay. The class given is biochemical.

In experiment [1] the target is T2, Human factor Xa (Homo sapiens, UniProt P00742). Put plainly: Xa Assay.
T2 sequence (P00742 235-488 limits assumed): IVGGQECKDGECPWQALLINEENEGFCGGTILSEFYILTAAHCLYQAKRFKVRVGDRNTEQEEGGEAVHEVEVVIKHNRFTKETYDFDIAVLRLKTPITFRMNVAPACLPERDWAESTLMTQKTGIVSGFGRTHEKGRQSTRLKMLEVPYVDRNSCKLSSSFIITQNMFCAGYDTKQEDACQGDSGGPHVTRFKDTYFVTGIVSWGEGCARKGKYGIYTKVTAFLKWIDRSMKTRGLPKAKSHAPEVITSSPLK
T2 sequence (P00742 41-179 limits assumed): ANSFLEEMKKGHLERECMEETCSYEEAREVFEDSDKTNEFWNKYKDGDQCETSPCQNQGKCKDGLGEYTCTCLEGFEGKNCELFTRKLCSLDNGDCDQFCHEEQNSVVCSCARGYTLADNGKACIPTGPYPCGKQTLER
Experiment [2] deals with T2, Human factor Xa.
The mark [3] stands for this setting: cells given as a plain number (IC50); read-out: IC50 or % Inhibition TF-VIIa (30 µM).
[4] abbreviates: read-out: IC50 or % Inhibition TF-VIIa (30 µM); cells given as a plain number (IC50).
The mark [5] stands for this setting: read-out: IC50 or % Inhibition Factor Xa (30 µM), cells given as a plain number (IC50).
Setting [6] is: cells given as a plain number (IC50).

A word on the IC50: it is the concentration at which inhibition is half-maximal. For the compound `N=C(N)c1ccc(CNC(=O)Cn2c(-c3ccccc3)c(Cl)nc(NCCc3ccncc3)c2=O)cc1` [1471-13], at TF-VIIa (setting [3]), the IC50 amounted to 1.47 µM. For the same compound, the “IC50 or % Inhibition Factor Xa (30 µM)” value against Human factor Xa [1] (% inhibition at 30 µM) stood at 0%.
Regarding `N=C(N)c1ccc(CNC(=O)Cn2c(-c3cccc(Cl)c3)c(Cl)nc(NCc3ccccc3)c2=O)cc1` [1471-25], on Human factor Xa [1] (% inhibition at 30 µM), the “IC50 or % Inhibition Factor Xa (30 µM)” value worked out at 31%.
Take `N=C(N)c1ccc(CNC(=O)Cn2c(-c3ccccc3)c(Cl)nc(NCc3ccc(OC(F)(F)F)cc3)c2=O)cc1` [1507-04]: the results for the half-inhibitory concentration (IC50) at TF-VIIa (setting [4]) and on Human factor Xa [1] (setting [5]) were 29.5 µM and > 30 µM, respectively.
The matching figures for `N=C(N)c1ccc(CNC(=O)Cn2c(-c3ccccc3)c(Cl)nc(NCCc3ccc(Br)cc3)c2=O)cc1` [1507-06]: 20 µM and > 30 µM.
Turning to `N=C(N)c1ccc(CNC(=O)Cn2c(-c3ccccc3)c(Cl)nc(NC(Cc3ccccc3)c3ccccc3)c2=O)cc1` (centres unmarked) [1507-07], at TF-VIIa, the “IC50 or % Inhibition TF-VIIa (30 µM)” value is listed as 25%. In addition, at Human factor Xa [1] (setting [5]), the IC50 is > 30 µM.
With `COc1ccc(CCNc2nc(Cl)c(-c3ccccc3)n(CC(=O)NCc3ccc(C(=N)N)cc3)c2=O)cc1` [1507-11], the IC50 at TF-VIIa (setting [4]) was 3 µM; on Human factor Xa [1] (setting [5]), > 30 µM.
As for `COc1cccc(CCNc2nc(Cl)c(-c3ccccc3)n(CC(=O)NCc3ccc(C(=N)N)cc3)c2=O)c1` [1507-12], the IC50 on TF-VIIa (setting [4]) is 6.7 µM; on Human factor Xa [1] (setting [5]) it was > 30 µM.
The corresponding values for `COc1ccc(CNc2nc(Cl)c(-c3ccccc3)n(CC(=O)NCc3ccc(C(=N)N)cc3)c2=O)cc1` [1507-13] are 26.7 µM and > 30 µM.
In the case of `N=C(N)c1ccc(CNC(=O)Cn2c(-c3ccccc3)c(Cl)nc(NCc3ccccc3C(F)(F)F)c2=O)cc1` [1507-15], the IC50 is 12 µM at TF-VIIa (setting [4]) and > 30 µM on Human factor Xa [1] (setting [5]).
Turning to `N=C(N)c1ccc(CNC(=O)Cn2c(-c3ccccc3)c(Cl)nc(NCCc3cccs3)c2=O)cc1` [1507-18], the IC50 on Human factor Xa [1] (setting [5]) was > 30 µM.
Take `N=C(N)c1ccc(CNC(=O)Cn2c(-c3ccccc3)c(Cl)nc(NCc3ccc(Cl)cc3Cl)c2=O)cc1` [1507-22]: on TF-VIIa, the “IC50 or % Inhibition TF-VIIa (30 µM)” value is given as 45%. Also, on Human factor Xa [1] (setting [5]), the IC50 is > 30 µM.
Turning to `N=C(N)c1ccc(CNC(=O)Cn2c(-c3ccccc3)c(Cl)nc(NC3CCCC3)c2=O)cc1` [1507-25], the IC50 on TF-VIIa (setting [4]) is 1.6 µM; at Human factor Xa [1] (setting [5]), > 30 µM.
The matching figures for `N=C(N)c1ccc(CNC(=O)Cn2c(-c3ccccc3)c(Cl)nc(NCc3ccc(F)cc3F)c2=O)cc1` [1507-26]: 20.5 µM and > 30 µM.
On to `N=C(N)c1ccc(CNC(=O)Cn2c(-c3ccccc3)c(Cl)nc(NCc3cccc4ccccc34)c2=O)cc1` [1507-28], for which, at TF-VIIa, the “IC50 or % Inhibition TF-VIIa (30 µM)” value is 38%. The IC50 at Human factor Xa [1] (setting [5]) was > 30 µM.
Turning to `N=C(N)c1ccc(CNC(=O)Cn2c(-c3ccccc3)c(Cl)nc(NC3CCCCCC3)c2=O)cc1` [1507-29], the IC50 at TF-VIIa (setting [3]) was 5.8 µM. For the same compound, the “IC50 or % Inhibition Factor Xa (30 µM)” value against Human factor Xa [1] (% inhibition at 30 µM) stood at 4%.
Consider `N=C(N)c1ccc(CNC(=O)Cn2c(-c3ccccc3)c(Cl)nc(NCc3ccc(Br)cc3)c2=O)cc1` [1507-30], for which the IC50 on TF-VIIa (setting [4]) is 13.4 µM; on Human factor Xa [1] (setting [5]) it was > 30 µM.
The corresponding values for `N=C(N)c1ccc(CNC(=O)Cn2c(-c3ccccc3)c(Cl)nc(NC3CC3)c2=O)cc1` [1507-31] are 3.7 µM and > 30 µM.
`CC(C)CNc1nc(Cl)c(-c2ccccc2)n(CC(=O)NCc2ccc(C(=N)N)cc2)c1=O` [1507-32]: the results for the IC50 on TF-VIIa (setting [3]) and on Human factor Xa [1] (setting [5]) were 21.3 µM and > 30 µM, respectively.
In the case of `C[C@H](Nc1nc(Cl)c(-c2ccccc2)n(CC(=O)NCc2ccc(C(=N)N)cc2)c1=O)c1ccccc1` [1507-34], the values for the IC50 at TF-VIIa (setting [4]) and on Human factor Xa [1] (setting [5]) were 8.5 µM and > 30 µM, respectively.
In the case of `N=C(N)c1ccc(CNC(=O)Cn2c(-c3ccccc3)c(Cl)nc(NC3CCS(=O)(=O)C3)c2=O)cc1` (centres unmarked) [1507-36], at TF-VIIa (setting [3]), the IC50 was found to be 13.8 µM. For the same compound, the “IC50 or % Inhibition Factor Xa (30 µM)” value against Human factor Xa [1] (% inhibition at 30 µM) is on record as 0%.
As to `N=C(N)c1ccc(CNC(=O)Cn2c(-c3ccccc3)c(Cl)nc(N3CCC3)c2=O)cc1` [1522-28], on Human factor Xa [1] (setting [5]), the IC50 is > 30 µM.
Take `Nc1ccc(CNC(=O)Cn2c(Cc3ccccc3)c(Cl)nc(NCCc3ccccc3)c2=O)cn1` [Example 9]: the “IC50 or % Inhibition Factor Xa (30 µM)” value on Human factor Xa [1] (setting [6]) is listed as >0 µM.
The same measure, in the same setting: the value for `Nc1ccc(CNC(=O)Cn2c(CCc3ccccc3)c(Cl)nc(NCCc3ccccc3)c2=O)cn1` [Example 10, 3-(2-Phenylethylamino)-5-chloro-6-phenethyl-1-(2-amino-5-methylcarboxamidomethylpyridinyl)pyrazinone] was >0 µM.
With `N=C(N)c1ccc(CNC(=O)Cn2c(-c3ccccc3)c(Cl)nc(CN)c2=O)cc1` [Example 18], at Human factor Xa [1] (% inhibition at 30 µM), the “IC50 or % Inhibition Factor Xa (30 µM)” value is recorded as 0%.
Still for that read-out and setting: the value for `Nc1cccc(-c2c(Cl)nc(NC3CCC3)c(=O)n2CC(=O)NCCCc2ccnc(N)n2)c1` [Example 26] was 5%.
`N=C(N)c1ccc(CNC(=O)Cn2c(-c3ccccc3)c(Cl)nc(NCCN)c2=O)cc1` [Example 44]: at Human factor Xa [1] (% inhibition at 30 µM), the “IC50 or % Inhibition Factor Xa (30 µM)” value is listed as 4%.
With `N=C(N)c1ccc(CNC(=O)Cn2c(-c3ccccc3)c(Cl)nc(NCCCN)c2=O)cc1` [Example 45], the “IC50 or % Inhibition Factor Xa (30 µM)” value against Human factor Xa [1] (% inhibition at 30 µM) came to 9%.
Still for that read-out and setting: the value for `N=C(N)c1ccc(CNC(=O)Cn2c(-c3ccccc3)c(Cl)nc(NCCCCN)c2=O)cc1` [Example 46] was 10%; that for `CC(C)Nc1nc(Cl)c(-c2cccc([N+](=O)[O-])c2)n(CC(=O)NCc2ccc(C#N)cc2)c1=O` [Example 59] was 2%.
`CC(=O)Nc1cccc(-c2c(Cl)nc(NCCc3ccccc3)c(=O)n2CC(=O)NCc2ccc(C(=N)N)cc2)c1` [Example 100]: the IC50 at Human factor Xa [1] is > 30 µM.
As to `CS(=O)(=O)Nc1cccc(-c2c(Cl)nc(NCCc3ccccc3)c(=O)n2CC(=O)NCc2ccc(C(=N)N)cc2)c1` [Example 101], the IC50 against Human factor Xa [1] was > 30 µM.
For `N=C(N)c1ccc(CNC(=O)Cn2c(-c3ccccc3)cnc(NS(=O)(=O)c3ccccc3)c2=O)cc1` [Example 105], the “IC50 or % Inhibition Factor Xa (30 µM)” value on Human factor Xa [1] (% inhibition at 30 µM) is on record as 5%.
Consider `COc1ccc(-c2c(Cl)nc(NCc3ccccc3)c(=O)n2CC(=O)NCCc2ccncc2)cc1` [Example E-0097], for which the “% Inhibition Factor Xa (100 µM)” value on Human factor Xa [2] is 3%. Besides, on TF-VIIa, the “% Inhibition TF-VIIa (100 µM)” value is reported as 0%.
The corresponding values for `COc1ccc(-c2c(Cl)nc(NCc3ccccc3)c(=O)n2CC(=O)NCCc2cccnc2)cc1` [Example E-0098] are 2% and 0%.
In the case of `COc1ccc(-c2c(Cl)nc(NCCc3cccc(Cl)c3)c(=O)n2CC(=O)NCCc2cccnc2)cc1` [Example E-0104], the “% Inhibition Factor Xa (100 µM)” value on Human factor Xa [2] came out at 5%. Moreover, on TF-VIIa, the “% Inhibition TF-VIIa (100 µM)” value came out at 3%.
For `COc1ccc(-c2c(Cl)nc(NCCc3ccc(Cl)cc3)c(=O)n2CC(=O)NCCc2cccnc2)cc1` [Example E-0107], on Human factor Xa [2], the “% Inhibition Factor Xa (100 µM)” value stood at 6%. The “% Inhibition TF-VIIa (100 µM)” value at TF-VIIa was determined as 4%.
The matching figures for `O=C(Cn1c(-c2ccc(-c3ccccc3)cc2)c(Cl)nc(NCc2ccccc2)c1=O)NCCc1cccnc1` [Example E-0110]: 3% and 0%.
Take `CSc1ccc(N)cc1-c1c(Cl)nc(NC(C)C)c(=O)n1CC(=O)NCc1ccc(C(=N)N)cc1` [compound 76]: at Human factor Xa [1] (% inhibition at 30 µM), the “IC50 or % Inhibition Factor Xa (30 µM)” value was 0%.
For the compound `CNc1cccc(-c2c(Cl)nc(NCCc3ccccc3)c(=O)n2CC(=O)NCc2ccc(C(=N)N)cc2)c1` [compound 95], the IC50 on Human factor Xa [1] (setting [5]) was > 30 µM.
